In patent publication US8906909B2 (Curis, Inc., priority 2009, dated 2014):

How the values were obtained:
[1] = system: H1993 cells; assay: Cell proliferation assay Method A (ATPlite), H1993; assay type: cell-based; conditions: Homo sapiens, NCI-H1993, 72 hours, read-out: antiproliferative activity IC50, H1993
Description: (§1) Cancer cell lines were plated at 5,000 to 10,000 per well in 96-well flat bottomed plates with various concentration of compounds. The cells were incubated with compounds for 72 hours in the presence of 0.5% of fetal bovine serum. Growth inhibition was accessed by adenosine triphosphate (ATP) content assay using Perkin Elmer ATPlite kit. ATPlite is an ATP monitoring system based on firefly luciferase. Briefly, 25 μl of mammalian cell lysis solution was added to 50 μl of phenol red-free culture medium per well to lyse the cells and stabilize the ATP. 25 μl of substrate solution was then added to the well and subsequently the luminescence was measured.

[2] = system: Sk-Mel-28 cells; assay: Cell proliferation assay Method A (ATPlite), Sk-Mel-28; assay type: cell-based; conditions: Homo sapiens, 72 hours, read-out: antiproliferative activity IC50, Sk-Mel-28
Description: as §1

[3] = system: BT-474 cells; assay: Cell proliferation assay Method A (ATPlite), BT-474; assay type: cell-based; conditions: Homo sapiens, 72 hours, read-out: antiproliferative activity IC50, BT-474
Description: as §1

[4] = system: HDACs (HeLa cell nuclear extracts); assay: HDAC enzymatic activity, Biomol Color de Lys system; assay type: biochemical
Method in brief: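 HeLa nuclear extract as HDAC source with Color de Lys substrate in 50 mM Tris/Cl pH 8.0, 137 mM NaCl, 2.7 mM KCl, 1 mM MgCl2. Serially diluted compounds reacted 1 h at 25 °C, then developer added; fluorescence (Ex 350–380/Em 440–460) fitted sigmoidally for IC50.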

[5] = system: HCT-118 cells; assay: Cell proliferation assay Method A (ATPlite), HCT-118; assay type: cell-based; conditions: 72 hours, read-out: antiproliferative activity IC50, HCT-118
Description: as §1

[6] = system: Sk-Mel-28 cells; assay: Cell proliferation assay Method B, Sk-Mel-28; assay type: cell-based; conditions: Homo sapiens, SK-MEL-28; Melanoma; Method B; 72 hours; read-out: antiproliferative activity IC50, Sk-Mel-28
Description: (§2) Cancer cell lines were plated at 5,000 to 10,000 per well in 96-well flat bottomed plates with various concentration of compounds. The cells were incubated with compounds for 72 hours in the presence of 0.5% of fetal bovine serum. Growth inhibition was accessed by adenosine triphosphate (ATP) content assay using Promega CellTiter-Glo kit. Promega CellTiter-Glo kit is an ATP monitoring system based on firefly luciferase. Briefly, 16 μl of mammalian cell lysis and substrate solution was added to 84 μl of culture medium per well to lyse the cells and stabilize the ATP. The mixture was shaken and incubated for 30 minutes and subsequently the luminescence was measured.

[7] = system: BT474 cells; assay: Cell proliferation assay Method B, BT474; assay type: cell-based; conditions: Homo sapiens, BT-474; Breast; Method B; 72 hours; read-out: antiproliferative activity IC50, BT474
Description: as §2

[8] = system: RPMI-8226 cells; assay: Cell proliferation assay Method B, RPMI-8226; assay type: cell-based; conditions: Homo sapiens, Multiple Myeloma, 72 hours, 0.5% fetal bovine serum, CellTiter-Glo, read-out: antiproliferative activity IC50, RPMI-8226
Description: as §2

SMILES	IC50 [1] [nM]	IC50 [2] [nM]	IC50 [3] [nM]	IC50 [4] [nM]	melting point [°C]	IC50 [5] [nM]	IC50 [6] [nM]	IC50 [7] [nM]	IC50 [8] [nM]
O=C(NO)c1cnc(NCc2cc3nc(-c4cccc5[nH]ncc45)nc(N4CCOCC4)c3s2)nc1 [Compound 53, 2-((2-(1H-indazol-4-yl)-4-morpholinothieno[3,2-d]pyrimidin-6-yl)methylamino)-N-hydroxypyrimidine-5-carboxamide]	100 to 1000	100 to 1000	< 100	< 100	234 to 237	100 to 1000			
CN(Cc1cc2nc(-c3cc(F)cc4[nH]ncc34)nc(N3CCOCC3)c2s1)c1ncc(C(=O)NO)cn1 [Compound 69, 2-(((2-(6-fluoro-1H-indazol-4-yl)-4-morpholinothieno[3,2-d]pyrimidin-6-yl)methyl)(methyl)amino)-N-hydroxypyrimidine-5-carboxamide]	< 100	< 100	< 100	< 100	215 to 217	< 100			
CC(c1cc2nc(-c3cccc4[nH]ncc34)nc(N3CCOCC3)c2s1)N(C)c1ncc(C(=O)NO)cn1 (stereo not shown) [Compound 70]	< 100	< 100	< 100	< 100		< 100	100 to 1000	< 10	
CN(Cc1cc2nc(-c3cccc4[nH]ncc34)nc(N3CCOCC3)c2s1)c1ncc(/C=C/C(=O)NO)cn1 [Compound 75]	100 to 1000	100 to 1000	100 to 1000	100 to 1000		100 to 1000			
O=C(NO)c1ccc(NCc2cc3nc(-c4cccc5[nH]ncc45)nc(N4CCOCC4)c3s2)nc1 [Compound 76, 6-((2-(1H-indazol-4-yl)-4-morpholinothieno[3,2-d]pyrimidin-6-yl)methylamino)-N-hydroxynicotinamide]	100 to 1000	100 to 1000	100 to 1000	< 100	218 to 220	100 to 1000			
O=C(NO)c1cnc(N(CCO)Cc2cc3nc(-c4cccc5[nH]ncc45)nc(N4CCOCC4)c3s2)nc1 [Compound 86, 2-(((2-(1H-indazol-4-yl)-4-morpholinothieno[3,2-d]pyrimidin-6-yl)methyl)(2-hydroxyethyl)amino)-N-hydroxypyrimidine-5-carboxamide]		1000 to 10000	100 to 1000	< 100	190 to 194	100 to 1000			
CC(=O)OCCN(Cc1cc2nc(-c3cccc4[nH]ncc34)nc(N3CCOCC3)c2s1)c1ncc(C(=O)NO)cn1 [Compound 87]	1000 to 10000	100 to 1000	1000 to 10000	< 100		100 to 1000			
COCCN(Cc1cc2nc(-c3cccc4[nH]ncc34)nc(N3CCOCC3)c2s1)c1ncc(C(=O)NO)cn1 [Compound 90, 2-(((2-(1H-indazol-4-yl)-4-morpholinothieno[3,2-d]pyrimidin-6-yl)methyl)(2-methoxyethyl)amino)-N-hydroxypyrimidine-5-carboxamide]	1000 to 10000		100 to 1000			< 100			
O=C(NO)c1cnc(N(CCCO)Cc2cc3nc(-c4cccc5[nH]ncc45)nc(N4CCOCC4)c3s2)nc1 [Compound 91]	> 10000		1000 to 10000	< 100		1000 to 10000			
CCN(Cc1cc2nc(-c3cccc4[nH]ncc34)nc(N3CCOCC3)c2s1)c1ncc(C(=O)NO)cn1 [Compound 92]		100 to 1000	< 100	< 100		< 100			
N#CCCN(Cc1cc2nc(-c3cccc4[nH]ncc34)nc(N3CCOCC3)c2s1)c1ncc(C(=O)NO)cn1 [Compound 99]	> 10000	100 to 1000	100 to 1000	< 100		> 10000			
CN(Cc1cc2nc(-c3cccnc3)nc(N3CCOCC3)c2s1)c1ncc(C(=O)NO)cn1 [Compound 109, N-hydroxy-2-(methyl((4-morpholino-2-(pyridin-3-yl)thieno[3,2-d]pyrimidin-6-yl)methyl)amino)pyrimidine-5-carboxamide]	< 100		< 100	< 100	160 to 164	< 100			
CN(C)c1ncc(-c2nc(N3CCOCC3)c3sc(CN(C)c4ncc(C(=O)NO)cn4)cc3n2)cn1 [Compound 117, 2-(((2-(2-(dimethylamino)pyrimidin-5-yl)-4-morpholinothieno[3,2-d]pyrimidin-6-yl)methyl)(methyl)amino)-N-hydroxypyrimidine-5-carboxamide]	< 100	< 100	< 100	< 100	200 to 206	< 100			
CN(Cc1cc2nc(-c3ccc(N)cc3Cl)nc(N3CCOCC3)c2s1)c1ncc(C(=O)NO)cn1 [Compound 284, 2-(((2-(4-Amino-2-chlorophenyl)-4-morpholinothieno[3,2-d]pyrimidin-6-yl)methyl)(methyl)amino)-N-hydroxypyrimidine-5-carboxamide]				< 100	179 to 183				< 10
C[C@H](O)c1cccc(-c2nc(N3CCOCC3)c3sc(CN(C)c4ncc(C(=O)NO)cn4)cc3n2)c1 [Compound 296, (S)—N-Hydroxy-2-(((2-(3-(1-hydroxyethyl)phenyl)-4-morpholinothieno[3,2-d]pyrimidin-6-yl)methyl)(methyl)amino)pyrimidine-5-carboxamide]				< 100	168 to 172				< 10
Nc1ccc(-c2nc(N3CCOCC3)c3sc(C(=O)NCC4CCN(c5ncc(C(=O)NO)cn5)CC4)cc3n2)cc1 [Compound 307, 2-(4-Aminophenyl)-N-((1-(5-(hydroxycarbamoyl)pyrimidin-2-yl)piperidin-4-yl)methyl)-4-morpholinothieno[3,2-d]pyrimidine-6-carboxamide]				< 100	232 to 238				
CNc1ccc(-c2nc(N3CCOCC3)c3sc(C(=O)NCC4CCN(c5ncc(C(=O)NO)cn5)CC4)cc3n2)cn1 [Compound 308, N-((1-(5-(Hydroxycarbamoyl)pyrimidin-2-yl)piperidin-4-yl)methyl)-2-(6-(methylamino)pyridin-3-yl)-4-morpholinothieno[3,2-d]pyrimidine-6-carboxamide]				< 100	215 to 218				100 to 1000
CNc1ccc(-c2nc(N3CCOCC3)c3sc(S(=O)(=O)NCC4CCN(c5ncc(C(=O)NO)cn5)CC4)cc3n2)cn1 [Compound 310, N-Hydroxy-2-(4-((2-(6-(methylamino)pyridin-3-yl)-4-morpholinothieno[3,2-d]pyrimidine-6-sulfonamido)methyl)piperidin-1-yl)pyrimidine-5-carboxamide]				< 100	190 to 197				
CN(Cc1cc2nc(-c3ccc4[nH]c(C(F)(F)F)nc4c3)nc(N3CCOCC3)c2s1)c1ncc(C(=O)NO)cn1 [Compound 318]				< 100	> 300				
CS(=O)(=O)N1CCN(Cc2cc3nc(-c4ccc(OCCCCC(=O)NO)cc4)nc(N4CCOCC4)c3s2)CC1 [Compound 319, N-Hydroxy-5-(4-(6-((4-(methylsulfonyl)piperazin-1-yl)methyl)-4-morpholinothieno[3,2-d]pyrimidin-2-yl)phenoxy)pentanamide]				100 to 1000	140 to 144				
CS(=O)(=O)N1CCN(Cc2cc3nc(-c4ccc(OCCCCCC(=O)NO)cc4)nc(N4CCOCC4)c3s2)CC1 [Compound 320, N-Hydroxy-6-(4-(6-((4-(methylsulfonyl)piperazin-1-yl)methyl)-4-morpholinothieno[3,2-d]pyrimidin-2-yl)phenoxy)hexanamide]				100 to 1000	140 to 142				
CS(=O)(=O)N1CCN(Cc2cc3nc(-c4ccc(OCCCCCCC(=O)NO)cc4)nc(N4CCOCC4)c3s2)CC1 [Compound 321, N-Hydroxy-7-(4-(6-((4-(methylsulfonyl)piperazin-1-yl)methyl)-4-morpholinothieno[3,2-d]pyrimidin-2-yl)phenoxy)heptanamide]				100 to 1000	143 to 145				
